Values joined by “and” are separate entries in the source; they are usually repeats but may differ in a detail not shown here. Identical values can stand only once.
System: J774.2 mouse macrophages
Experiment: LPS-induced cytokine and chemokine levels in J774.2 mouse macrophage cell supernatant (ELISA)
Type: cell-based
Conditions: for CXCL1 % reduction / CXCL1 [pg/mL] Mean / CXCL2 % reduction / CXCL2 [pg/mL] Mean / MMP9 % reduction / MMP9 [pg/mL] Mean / CXCL2 / MMP9: J774.2 cells; for CXCL1 % reduction / CXCL1 [pg/mL] Mean / CXCL2 % reduction / CXCL2 [pg/mL] Mean / MMP9 % reduction / MMP9 [pg/mL] Mean / CCl2, % reduction / CCl2, Mean / IL-1β % reduction / IL-6 % reduction / TNF-α % reduction / TNF-α Mean / CCl2 / CXCL1 / TNF-α / CXCL2 / MMP9: LPS; for CCl2, % reduction / CCl2, Mean / IL-1β % reduction / IL-6 % reduction / TNF-α % reduction / TNF-α Mean / CCl2 / CXCL1 / TNF-α: J774.2 supernatant; for CCl2 / CXCL1 / TNF-α / CXCL2 / MMP9: individual replicate

In the case of `C[C@@H]1C[C@H]2[C@@H]3CCC4=CC(=O)C=C[C@]4(C)[C@@]3(F)[C@@H](O)C[C@]2(C)[C@@]1(O)C(=O)CO` [Dexamethasone], the CXCL1 % reduction (compound 0.0003 µM) is reported as -75%, the “CXCL1 [pg/mL] Mean” value (compound 0.0003 µM) is reported as 45 pg/mL and the CXCL2 % reduction (compound 0.0003 µM) is reported as 24%. For the same molecule, the “CXCL2 [pg/mL] Mean” value (compound 0.0003 µM) was 24934 pg/mL, the MMP9 % reduction (compound 0.0003 µM) was 2.49% and the “MMP9 [pg/mL] Mean” value (compound 0.0003 µM) was 941 pg/mL. For the same molecule, the CXCL1 % reduction (compound 0.001 µM) was -60%, the “CXCL1 [pg/mL] Mean” value (compound 0.001 µM) was 41 pg/mL and the CXCL2 % reduction (compound 0.001 µM) was 22%. The “CXCL2 [pg/mL] Mean” value (compound 0.001 µM) was 25589 pg/mL, the MMP9 % reduction (compound 0.001 µM) was -3.26% and the “MMP9 [pg/mL] Mean” value (compound 0.001 µM) was 993 pg/mL. The CXCL1 % reduction (compound 0.003 µM) was -60%, the “CXCL1 [pg/mL] Mean” value (compound 0.003 µM) was 41 pg/mL and the CXCL2 % reduction (compound 0.003 µM) was 22%. The “CXCL2 [pg/mL] Mean” value (compound 0.003 µM) was 25475 pg/mL, the MMP9 % reduction (compound 0.003 µM) was 0.402% and the “MMP9 [pg/mL] Mean” value (compound 0.003 µM) was 960 pg/mL. For the same molecule, the CXCL1 % reduction (compound 0.01 µM) was -89%, the “CXCL1 [pg/mL] Mean” value (compound 0.01 µM) was 48 pg/mL and the CXCL2 % reduction (compound 0.01 µM) was 23%. For the same molecule, the “CXCL2 [pg/mL] Mean” value (compound 0.01 µM) was 24995 pg/mL, the MMP9 % reduction (compound 0.01 µM) was -17% and the “MMP9 [pg/mL] Mean” value (compound 0.01 µM) was 1120 pg/mL. For the same molecule, the “CXCL1 [pg/mL] Mean” value (compound 0.03 µM) was 66 pg/mL, the CXCL2 % reduction (compound 0.03 µM) was 17% and the “CXCL2 [pg/mL] Mean” value (compound 0.03 µM) was 26915 pg/mL. The MMP9 % reduction (compound 0.03 µM) was -7%, the “MMP9 [pg/mL] Mean” value (compound 0.03 µM) was 1030 pg/mL and the CXCL1 % reduction (compound 0.1 µM) was -158%. The “CXCL1 [pg/mL] Mean” value (compound 0.1 µM) was 66 pg/mL, the CXCL2 % reduction (compound 0.1 µM) was 23% and the “CXCL2 [pg/mL] Mean” value (compound 0.1 µM) was 25079 pg/mL. For the same molecule, the MMP9 % reduction (compound 0.1 µM) was -12%, the “MMP9 [pg/mL] Mean” value (compound 0.1 µM) was 1071 pg/mL and the CXCL1 % reduction (compound 0.3 µM) was -170%. The “CXCL1 [pg/mL] Mean” value (compound 0.3 µM) was 69 pg/mL, the CXCL2 % reduction (compound 0.3 µM) was 24% and the “CXCL2 [pg/mL] Mean” value (compound 0.3 µM) was 24836 pg/mL. For the same molecule, the MMP9 % reduction (compound 0.3 µM) was 4.75%, the “MMP9 [pg/mL] Mean” value (compound 0.3 µM) was 921 pg/mL and the CXCL1 % reduction (compound 1 µM) was -156%. For the same molecule, the “CXCL1 [pg/mL] Mean” value (compound 1 µM) was 66 pg/mL, the CXCL2 % reduction (compound 1 µM) was 21% and the “CXCL2 [pg/mL] Mean” value (compound 1 µM) was 25750 pg/mL. For the same molecule, the MMP9 % reduction (compound 1 µM) was -12%, the “MMP9 [pg/mL] Mean” value (compound 1 µM) was 1077 pg/mL and the “LPS-induced TNF-α, IL-6, and IL-1β in supernatant” value (J774.2 mouse macrophages, 0.0003-1 µM) was “dose-dependent reductions”. For the same molecule, the CCl2, % reduction (0.0003 µM) was 30%, the “CCl2, Mean” value (0.0003 µM) was 25543 pg/mL and the IL-1β % reduction (0.0003 µM) was -32%. For the same molecule, the IL-6 % reduction (0.0003 µM) was -12%, the TNF-α % reduction (0.0003 µM) was -6.59% and the “TNF-α Mean” value (0.0003 µM) was 1457 pg/mL. The CCl2 (0.0003 µM) was 25420.3 pg/mL and 25666.2 pg/mL, the CXCL1 (0.0003 µM) was 47.7 pg/mL and 41.8 pg/mL and the TNF-α (0.0003 µM) was 1400.2 pg/mL and 1513.9 pg/mL. For the same molecule, the CCl2, % reduction (0.001 µM) was 27%, the “CCl2, Mean” value (0.001 µM) was 26540 pg/mL and the IL-1β % reduction (0.001 µM) was -9%. The IL-6 % reduction (0.001 µM) was 2.11%, the “TNF-α Mean” value (0.001 µM) was 1347 pg/mL and the CCl2 (0.001 µM) was 25719.1 pg/mL and 27360.7 pg/mL. For the same molecule, the CXCL1 (0.001 µM) was 36.1 pg/mL and 45.9 pg/mL, the TNF-α (0.001 µM) was 1307.1 pg/mL and 1387.6 pg/mL and the CCl2, % reduction (0.003 µM) was 17%. The “CCl2, Mean” value (0.003 µM) was 29971 pg/mL, the IL-1β % reduction (0.003 µM) was 20% and the IL-6 % reduction (0.003 µM) was -10%. The TNF-α % reduction (0.003 µM) was 9%, the “TNF-α Mean” value (0.003 µM) was 1248 pg/mL and the CCl2 (0.003 µM) was 29318.9 pg/mL and 30622.8 pg/mL. For the same molecule, the CXCL1 (0.003 µM) was 44.3 pg/mL and 37.5 pg/mL, the TNF-α (0.003 µM) was 1276.5 pg/mL and 1220.4 pg/mL and the CCl2, % reduction (0.01 µM) was 11%. The “CCl2, Mean” value (0.01 µM) was 32289 pg/mL, the IL-1β % reduction (0.01 µM) was 44% and the IL-6 % reduction (0.01 µM) was 16%. For the same molecule, the TNF-α % reduction (0.01 µM) was 16%, the “TNF-α Mean” value (0.01 µM) was 1149 pg/mL and the CCl2 (0.01 µM) was 33314.7 pg/mL and 31263.9 pg/mL. For the same molecule, the CXCL1 (0.01 µM) was 53.3 pg/mL and 43.3 pg/mL, the TNF-α (0.01 µM) was 1202.6 pg/mL and 1095.5 pg/mL and the CCl2, % reduction (0.03 µM) was -11%. For the same molecule, the “CCl2, Mean” value (0.03 µM) was 39841 pg/mL, the IL-1β % reduction (0.03 µM) was 63% and the IL-6 % reduction (0.03 µM) was 40%. For the same molecule, the TNF-α % reduction (0.03 µM) was 30%, the “TNF-α Mean” value (0.03 µM) was 960 pg/mL and the CCl2 (0.03 µM) was 43664.9 pg/mL and 36017.7 pg/mL. For the same molecule, the CXCL1 (0.03 µM) was 62.3 pg/mL and 70.1 pg/mL, the TNF-α (0.03 µM) was 997.7 pg/mL and 922.4 pg/mL and the CCl2, % reduction (0.1 µM) was -6%. For the same molecule, the “CCl2, Mean” value (0.1 µM) was 38142 pg/mL, the IL-1β % reduction (0.1 µM) was 69% and the IL-6 % reduction (0.1 µM) was 54%. For the same molecule, the TNF-α % reduction (0.1 µM) was 37%, the “TNF-α Mean” value (0.1 µM) was 868 pg/mL and the CCl2 (0.1 µM) was 39902.2 pg/mL and 36382.1 pg/mL. The CXCL1 (0.1 µM) was 70.5 pg/mL and 61.8 pg/mL, the TNF-α (0.1 µM) was 957.1 pg/mL and 779.4 pg/mL and the CCl2, % reduction (0.3 µM) was 15%. For the same molecule, the “CCl2, Mean” value (0.3 µM) was 30843 pg/mL, the IL-1β % reduction (0.3 µM) was 75% and the IL-6 % reduction (0.3 µM) was 57%. For the same molecule, the TNF-α % reduction (0.3 µM) was 49%, the “TNF-α Mean” value (0.3 µM) was 706 pg/mL and the CCl2 (0.3 µM) was 33366.7 pg/mL and 28320.1 pg/mL. For the same molecule, the CXCL1 (0.3 µM) was 70.8 pg/mL and 67.4 pg/mL, the TNF-α (0.3 µM) was 780.3 pg/mL and 630.8 pg/mL and the CCl2, % reduction (1 µM) was 14%. The “CCl2, Mean” value (1 µM) was 31213 pg/mL, the IL-1β % reduction (1 µM) was 76% and the IL-6 % reduction (1 µM) was 58%. For the same molecule, the TNF-α % reduction (1 µM) was 52%, the “TNF-α Mean” value (1 µM) was 671 pg/mL and the CCl2 (1 µM) was 32973.4 pg/mL and 29452.4 pg/mL. For the same molecule, the CXCL1 (1 µM) was 65.4 pg/mL and 65.8 pg/mL, the TNF-α (1 µM) was 708.1 pg/mL and 633.8 pg/mL and the “CXCL2” value (compound 0.0003 µM) was 24204.6 pg/mL and 25664.1 pg/mL. The “MMP9” value (compound 0.0003 µM) was 875.528 pg/mL and 1006.68 pg/mL, the “CXCL2” value (compound 0.001 µM) was 24896.6 pg/mL and 26281.1 pg/mL and the “MMP9” value (compound 0.001 µM) was 908.955 pg/mL and 1077.76 pg/mL. For the same molecule, the “CXCL2” value (compound 0.003 µM) was 26063.4 pg/mL and 24885.7 pg/mL, the “MMP9” value (compound 0.003 µM) was 895.348 pg/mL and 1024.81 pg/mL and the “CXCL2” value (compound 0.01 µM) was 24945.6 pg/mL and 25043.7 pg/mL. The “MMP9” value (compound 0.01 µM) was 1078.2 pg/mL and 1162.43 pg/mL, the “CXCL2” value (compound 0.03 µM) was 28314.6 pg/mL and 25515.2 pg/mL and the “MMP9” value (compound 0.03 µM) was 1067.94 pg/mL and 991.656 pg/mL. For the same molecule, the “CXCL2” value (compound 0.1 µM) was 25553.8 pg/mL and 24603.6 pg/mL, the “MMP9” value (compound 0.1 µM) was 1150.63 pg/mL and 991.656 pg/mL and the “CXCL2” value (compound 0.3 µM) was 25702.8 pg/mL and 23968.8 pg/mL. The “MMP9” value (compound 0.3 µM) was 877.422 pg/mL and 963.71 pg/mL, the “CXCL2” value (compound 1 µM) was 26832.3 pg/mL and 24668.5 pg/mL and the “MMP9” value (compound 1 µM) was 1055.41 pg/mL and 1099.09 pg/mL.
